Columns and labels:
[1] = test system: RAW264.7 cells; assay: Cytokine (TNFα) response of mouse macrophage cell line; Table 2 'Murine'; type: cell-based; set-up: Maximum cytokine response Murine: unit not given here; conditions: NR = no response
Method: Compounds were also tested in a mouse macrophage cell line (FIG. 4B). RAW264.7 cells were subjected to increasing concentrations of the compounds and assessed for production of the cytokine TNFα.

[2] = test system: peripheral blood mononuclear cells (PBMCs); assay: IL-6 induction in fresh human PBMCs; type: cell-based; conditions: human IL-6; NR = no response
Method: Tumor necrosis factor alpha (TNFα) and IL-6 production in peripheral blood mononuclear cells (PBMCs) was measured after exposure to various concentrations of the DAT compounds synthesized as shown above. Initial studies focused on two different methods of delivery of the DAT compounds to PBMC cultures. In the first delivery method, the indicated derivative compound was dissolved in isopropanol, serially diluted, and then dried to the bottom of a tissue culture plate. In the second delivery method, the indicated derivative compound was dissolved in DMSO and serially diluted into tissue culture media. In each method, PBMCs were added to the compounds and incubated at 37° C. TNFα (FIG. 1A) and IL-6 (FIG. 1B) were measured after 18-24 hours after treatment by ELISA assay.
The isolated PBMCs were exposed to increasing concentrations of the indicated compounds resuspended in DMSO and serially diluted in media. IL-6 levels were determined from supernatants eighteen hours after treatment (FIG. 3).

SMILES | Maximum cytokine response Murine [1] | Minimal Effective Concentration Murine [1] [µM] | Maximum cytokine response h-IL-6 [2] [OD] | Minimal Effective Concentration h-IL-6 [2] [µM]
O=C(OC[C@H]1O[C@H](O[C@H]2O[C@H](COC(=O)c3ccccc3Nc3ccccc3)[C@@H](O)[C@H](O)[C@H]2O)[C@H](O)[C@@H](O)[C@@H]1O)c1ccccc1Nc1ccccc1 [UM1075] | 2.2 | 3.7 | 3.5 | 20
O=C(OC[C@H]1O[C@H](O[C@H]2O[C@H](COC(=O)c3cc([N+](=O)[O-])cc([N+](=O)[O-])c3)[C@@H](O)[C@H](O)[C@H]2O)[C@H](O)[C@@H](O)[C@@H]1O)c1cc([N+](=O)[O-])cc([N+](=O)[O-])c1 [UM1080] | 1 | 33 | 2 | 100
COc1cc(Br)c(CC(=O)OC[C@H]2O[C@H](O[C@H]3O[C@H](COC(=O)Cc4cc(OC)c(OC)cc4Br)[C@@H](O)[C@H](O)[C@H]3O)[C@H](O)[C@@H](O)[C@@H]2O)cc1OC [UM1082] | 1.7 | 33 | 0.5 | 100
O=C(OC[C@H]1O[C@H](O[C@H]2O[C@H](COC(=O)c3ccc(C(F)(F)F)cc3C(F)(F)F)[C@@H](O)[C@H](O)[C@H]2O)[C@H](O)[C@@H](O)[C@@H]1O)c1ccc(C(F)(F)F)cc1C(F)(F)F [UM1084] | 2.9 | 33 | 3 | 100
Cc1ccc(C(=O)OC[C@H]2O[C@H](O[C@H]3O[C@H](COC(=O)c4ccc(C)cc4C(F)(F)F)[C@@H](O)[C@H](O)[C@H]3O)[C@H](O)[C@@H](O)[C@@H]2O)c(C(F)(F)F)c1 [UM1085] | 2.2 | 33 | 3 | 100
CC(C)(C)c1cc(CCC(=O)OC[C@H]2O[C@H](O[C@H]3O[C@H](COC(=O)CCc4cc(C(C)(C)C)c(O)c(C(C)(C)C)c4)[C@@H](O)[C@H](O)[C@H]3O)[C@H](O)[C@@H](O)[C@@H]2O)cc(C(C)(C)C)c1O [UM1086] | 3 | 0.13 | 3 | 33.3
CC(C)(C)c1cc(C(=O)OC[C@H]2O[C@H](O[C@H]3O[C@H](COC(=O)c4cc(C(C)(C)C)c(O)c(C(C)(C)C)c4)[C@@H](O)[C@H](O)[C@H]3O)[C@H](O)[C@@H](O)[C@@H]2O)cc(C(C)(C)C)c1O [UM1087] | 3 | 0.13 | 3 | 33.3
CC(C)(C)c1cc(C(=O)NC[C@H]2O[C@H](O[C@H]3O[C@H](CNC(=O)c4cc(C(C)(C)C)cc(C(C)(C)C)c4O)[C@@H](O)[C@H](O)[C@H]3O)[C@H](O)[C@@H](O)[C@@H]2O)c(O)c(C(C)(C)C)c1 [UM1088] | 1.3 | 0.4 | 3.5 | 2.5
CCCCCCOc1cc(OCCCCCC)cc(C(=O)OC[C@H]2O[C@H](O[C@H]3O[C@H](COC(=O)c4cc(OCCCCCC)cc(OCCCCCC)c4)[C@@H](O)[C@H](O)[C@H]3O)[C@H](O)[C@@H](O)[C@@H]2O)c1 [UM1092] | <.001 | 3.4 | 3.3 | 3.7
CCCCCCCCOc1cc(OCCCCCCCC)cc(C(=O)OC[C@H]2O[C@H](O[C@H]3O[C@H](COC(=O)c4cc(OCCCCCCCC)cc(OCCCCCCCC)c4)[C@@H](O)[C@H](O)[C@H]3O)[C@H](O)[C@@H](O)[C@@H]2O)c1 [UM1093] | <.001 | 3.4 | 3.4 | 1.2
CCCCCCCCCCOc1cc(OCCCCCCCCCC)cc(C(=O)OC[C@H]2O[C@H](O[C@H]3O[C@H](COC(=O)c4cc(OCCCCCCCCCC)cc(OCCCCCCCCCC)c4)[C@@H](O)[C@H](O)[C@H]3O)[C@H](O)[C@@H](O)[C@@H]2O)c1 [UM1094] | <.001 | 3.4 | 3.4 | 1.2
CCCOc1cc(C(=O)OC[C@H]2O[C@H](O[C@H]3O[C@H](COC(=O)c4cc(OCCC)c(OCCC)c(OCCC)c4)[C@@H](O)[C@H](O)[C@H]3O)[C@H](O)[C@@H](O)[C@@H]2O)cc(OCCC)c1OCCC [UM1095] | 0.001 | 3.4 | 3.3 | 3.7
CCCCOc1cc(C(=O)OC[C@H]2O[C@H](O[C@H]3O[C@H](COC(=O)c4cc(OCCCC)c(OCCCC)c(OCCCC)c4)[C@@H](O)[C@H](O)[C@H]3O)[C@H](O)[C@@H](O)[C@@H]2O)cc(OCCCC)c1OCCCC [UM1096] | 0.005 | 3 | 3.2 | 2.5
CCCCCCOc1cc(C(=O)OC[C@H]2O[C@H](O[C@H]3O[C@H](COC(=O)c4cc(OCCCCCC)c(OCCCCCC)c(OCCCCCC)c4)[C@@H](O)[C@H](O)[C@H]3O)[C@H](O)[C@@H](O)[C@@H]2O)cc(OCCCCCC)c1OCCCCCC [UM1097] | 0.005 | 3.4 | 3.3 | 3.7
CCCCCCCCOc1cc(C(=O)OC[C@H]2O[C@H](O[C@H]3O[C@H](COC(=O)c4cc(OCCCCCCCC)c(OCCCCCCCC)c(OCCCCCCCC)c4)[C@@H](O)[C@H](O)[C@H]3O)[C@H](O)[C@@H](O)[C@@H]2O)cc(OCCCCCCCC)c1OCCCCCCCC [UM1098] | 0.04 | 3.4 | 3.4 | 11
CCCCCCCCCCOc1cc(C(=O)OC[C@H]2O[C@H](O[C@H]3O[C@H](COC(=O)c4cc(OCCCCCCCCCC)c(OCCCCCCCCCC)c(OCCCCCCCCCC)c4)[C@@H](O)[C@H](O)[C@H]3O)[C@H](O)[C@@H](O)[C@@H]2O)cc(OCCCCCCCCCC)c1OCCCCCCCCCC [UM1099] | 0.005 | 3.4 | 3.2 | 11

Reference: patent publication US12319709B2, “Diaryl trehalose compounds and uses thereof” (THE UNIVERSITY OF MONTANA, priority 2018, dated 2025)
